Patent US4108857A, “Imidazolylmethyl methanobenzazocines” (Sterling Drug Inc., priority 1977, dated 1978)
Converted amounts (≈) assume the structure as drawn. Where two headings read alike, the source gives them in different places.

Columns and labels:
[1] = precipitation on diluting ethyl alcohol solution with four volumes of water; assay type: physicochemical; conditions: 5 percent (w/v) solution in 95 percent ethyl alcohol
[2] = tested on: maximal electroshock seizures; experiment: anti-maximal electroshock seizure test in mice; assay type: in vivo; conditions: for ED50: Mus musculus
Method: The preferred species of this invention, i.e. the compounds having in free base form Formula II, are useful as analgesic agents administered orally or parenterally to humans. […] In the anti-maximal electroshock seizure test, the compounds were administered intraperitoneally or perorally 30 or 90 minutes prior to the application of 50 milliamperes of alternating current through corneal electrodes. Shock duration was 0.3 second. The criterion for anticonvulsant activity was the absence of the tonic hind leg extensor component of the seizure. In the anti-maximal pentylenetetrazol seizure test, the compounds were given intraperitoneally 30 or 90 minutes prior to the rapid intravenous injection of 50 mg. per kg. of pentylenetetrazol. Failure to display tonic hind leg extensor seizures was again the criterion for drug action. Representative results, expressed as ED50 (mg./kg.), which were obtained with my new compounds in these two tests are as follows: […]

[3] = tested on: minimal pentylenetetrazol seizures; experiment: anticonvulsant test against minimal pentylenetetrazol seizures; assay type: in vivo, mice; conditions: Mus musculus, oral, pentylenetetrazol 32.5 mg./kg. intravenously
Method: In anticonvulsant studies, against minimal pentylenetetrazol seizures, wherein the dose of pentylenetetrazol was only 32.5 mg./kg. (intravenously) and the ensuing convulsions were clonic, without a tonic hind leg extensor component, the oral ED50 values were: 30 minutes post-medication, 15 ± 4 mg./kg.; 90 minutes post-medication, 37 ± 6 mg./kg.

humans = experiment: analgesic use in humans; assay type: in vivo
Method: For example, administered orally, the effective dosage of the racemic cis form of this compound in humans has been determined to be about 0.1 to 0.5 mg. of drug per kg. of body weight per day, at 5-25 mg. per dose; preferably about 0.2 to 0.4 mg./kg./day, for instance a total of […] at 20 mg./dose.

mice [4] = experiment: inclined screen test in mice (skeletal muscle relaxation); assay type: in vivo; conditions: Mus musculus
acute toxicity, mouse = conditions: in vivo; for LD50 at 168 h: 7 day
Method: (§1) In a toxicology study, monkeys were medicated orally with 5 mg./kg. and 25 mg./kg. of the product of Example 1A each day for 5 days. […] There was considerable variability among the monkeys in the magnitude of the response. Symptoms lasted 2 to 5 hours. […] Blood SGO-T, alkaline phosphatase, and BUN were all normal.

mice [5] = experiment: diuresis in mice; assay type: in vivo; conditions: 12.5 mg./kg. and 25 mg./kg. i.p.
[6] = precipitation on gradual pH adjustment of the aqueous solution; assay type: physicochemical; conditions: 1 percent solution, N/10 sodium hydroxide solution, pH 7.0
pH of solution = assay type: physicochemical; conditions: hydrochloride; 0.42 ml. of N/2 hydrochloric acid and 0.58 ml. of water
[7] = tested on: maximal pentylenetetrazol seizures; experiment: anti-maximal pentylenetetrazol seizure test in mice; assay type: in vivo; conditions: Mus musculus
mice [8] = experiment: psychomotor activity studies in mice; assay type: in vivo
monkeys = experiment: toxicology study in monkeys (oral, daily for 5 days); assay type: in vivo
Method: as §1

acute toxicity, rat = conditions: in vivo; for LD50 at 168 h: 7 day
Method: as §1

[9] = solubility in water or aqueous acid; conditions: dilute hydrochloric acid
[10] = 5 mg./kg. orally each day for 5 days
[11] = iv, I.V., read-out: LD50 ± s.e.

In the case of `C[C@H]1[C@H]2Cc3ccccc3[C@]1(C)CCN2CC1CC1` (relative stereo) [Example 1A, racemic 1,2,3,4,5,6-hexahydro-3-cyclopropylmethyl-cis-6,11-dimethyl-2,6-methano-3-benzazocine], the “precipitation on dilution with four volumes of water” value [1] is reported as “a precipitate formed”, the “Anti-Maximal Electroshock ED50” value ([2]; IP, 90') is reported as “INACT” and the ED50 ([2]; 0.5 h, IP, 30') is reported as 11.2 ± 2 mg/kg. For the same molecule, the ED50 ([2]; 0.5 h, PO, 30') was 26.2 ± 7 mg/kg, the ED50 ([2]; 1.5 h, PO, 90') was 35.5 ± 3 mg/kg and the ED50 ([3]; 0.5 h, 30 minutes post-medication) was 15 ± 4 mg/kg. The ED50 ([3]; 1.5 h, 90 minutes post-medication) was 37 ± 6 mg/kg, the “psychotomimetic effects in humans” value (humans; analgesically effective doses) was “very few, if any, psychotomimetic effects” and the “central nervous system effects in humans” value (humans; effective therapeutic analgesic doses) was “only minimal central nervous system effects”. For the same molecule, the “analgesic activity in humans” value (humans; humans) was “strong analgesic”, the ED50 (mice [4]; 1 h, oral, sixty minutes after medication, read-out: dose at which 50 percent of the mice had fallen from a 60° inclined screen) was 38.2 ± 11 mg/kg and the ED50 (mice [4]; ip, intraperitoneal, read-out: ED50, 60° inclined screen) was 17.2 mg/kg. The LD50 at 24 h (acute toxicity, mouse; ip, I.P.) was 65 ± 7 mg/kg, the LD50 at 168 h (acute toxicity, mouse; ip, I.P.) was 65 ± 7 mg/kg and the LD50 at 24 h (acute toxicity, mouse; iv, I.V.) was 20 ± 1 mg/kg. It also gave an LD50 at 168 h (acute toxicity, mouse; iv, I.V.) of 20 ± 1 mg/kg, an LD50 at 24 h (acute toxicity, mouse; po, P.O.) of 155 ± 17 mg/kg and an LD50 at 168 h (acute toxicity, mouse; po, P.O.) of 155 ± 17 mg/kg. The diuresis (mice [5]) was “significant diuresis”, the urine produced (mice [5]) was “dilute urine without electrolyte concentration” and the “precipitation on adjusting to pH 7.0” value [6] was “no precipitate formed”. For the same molecule, the “pH of 1 percent solution in dilute hydrochloric acid” value (pH of solution) was 1.5, the ED50 ([7]; 0.5 h, IP, 30') was 2.3 ± 7 mg/kg and the ED50 ([7]; 0.5 h, PO, 30') was 3.3 ± 0.8 mg/kg. For the same molecule, the ED50 ([7]; 1.5 h, IP, 90') was 5.3 ± 10 mg/kg, the ED50 ([7]; 1.5 h, PO, 90') was 6.2 ± 1 mg/kg and the “toxic signs at high dose” value (mice [8]; 128 mg./kg. p.o.) was “Ataxia, loss of righting reflex, and death occurred”. For the same molecule, the psychomotor activity pattern (mice [8]; 8-128 mg./kg. p.o.) was “stimulation at lower doses and depression at high doses”, the symptoms (monkeys; [10]) was “Some ataxia with a decrease in activity” and the tolerability (monkeys; [10]) was “well tolerated”. The symptoms (monkeys; 25 mg./kg. orally each day for 5 days) was “more marked decrease in spontaneous activity along with ataxia and salivation”, the BUN (monkeys; oral) was “normal” and the “Blood SGO-T” value (monkeys; oral) was “normal”. For the same molecule, the alkaline phosphatase (monkeys; oral) was “normal”, the body weight (monkeys; oral) was “Some weight loss occurred” and the LD50 at 24 h (acute toxicity, rat; [11]) was 17 ± 1 mg/kg. For the same molecule, the LD50 at 168 h (acute toxicity, rat; [11]) was 17 ± 1 mg/kg, the LD50 at 24 h (acute toxicity, rat; po, P.O., read-out: ALD50) was 200 mg/kg and the LD50 at 168 h (acute toxicity, rat; po, P.O., read-out: ALD50) was 200 mg/kg. For the same molecule, the solubility [9] was 10000 µg/mL (≈ 39.2 mM).
